Assay results published in PubChem BioAssay (NCI).
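1) Cells in 96-well plates. 2) Compound, 48 h, 5 concentrations. 3) Linear interpolation between surrounding doses. 4) Unreached endpoint = highest concentration. Abbreviation: GI50, concentration required for 50% inhibition of growth. TGI: concentration producing complete growth inhibition.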

Experiments:
Assay in all cases: NCI anticancer screen, dose series, 48 h
[1] = tested on: MDA-MB-435
[2] = tested on: HT29 colon
[3] = tested on: UACC-257 melanoma
[4] = tested on: OVCAR-8 ovarian
[5] = tested on: ACHN renal
[6] = tested on: SF-295 CNS
[7] = tested on: HL-60(TB) leukemia
[8] = tested on: OVCAR-3 ovarian
[9] = tested on: KM12 colon
[10] = tested on: M14 melanoma
[11] = tested on: SK-MEL-5 melanoma
[12] = tested on: BT-549 breast
[13] = tested on: SK-MEL-28 melanoma
[14] = tested on: SF-539 CNS
[15] = tested on: NCI-H226 lung
[16] = tested on: COLO 205 colon
[17] = tested on: SF-268 CNS
[18] = tested on: SN12C renal
[19] = tested on: HS 578T breast
[20] = tested on: A549 NSCLC
[21] = tested on: NCI-H522 lung
[22] = tested on: SNB-75 CNS
[23] = tested on: DU-145 prostate
[24] = tested on: 786-0 renal
[25] = tested on: T-47D breast
[26] = tested on: RXF 393 renal
[27] = tested on: OVCAR-5 ovarian
[28] = tested on: UACC-62 melanoma
[29] = tested on: NCI-H460 lung
[30] = tested on: IGROV1 ovarian
[31] = tested on: EKVX NSCLC
[32] = tested on: MALME-3M melanoma
[33] = tested on: CAKI-1 renal
[34] = tested on: SR leukemia
[35] = tested on: HCT-116 colon
[36] = tested on: SW-620 colon
[37] = tested on: CCRF-CEM leukemia
[38] = tested on: HOP-62 NSCLC
[39] = tested on: SK-OV-3 ovarian
[40] = tested on: OVCAR-4 ovarian
[41] = tested on: U251 CNS
[42] = tested on: HCT-15 colon
[43] = tested on: PC-3 prostate
[44] = tested on: TK-10 renal
[45] = tested on: NCI/ADR-RES ovarian
[46] = tested on: K-562 leukemia
[47] = tested on: SK-MEL-2 melanoma
[48] = tested on: MOLT-4 leukemia
[49] = tested on: A498 renal
[50] = tested on: HOP-92 NSCLC
[51] = tested on: NCI-H23 lung
[52] = tested on: MCF7 breast
[53] = tested on: RPMI-8226 leukemia
[54] = tested on: MDA-MB-231 breast
[55] = tested on: LOX IMVI melanoma
[56] = tested on: SNB-19 CNS
[57] = tested on: HCC-2998 colon
[58] = tested on: UO-31 renal

## CC(C)(C)c1ccc(OC(=O)Nc2ccc(O)c(C(=O)O)c2)cc1
[1]
  TGI: > 100 µM
[2]
  TGI: > 100 µM
[3]
  TGI: > 100 µM
[4]
  TGI: > 100 µM
[5]
  TGI: > 100 µM
[6]
  TGI: > 100 µM
[7]
  TGI: > 100 µM
[8]
  TGI: > 100 µM
[9]
  TGI: > 100 µM
[10]
  TGI: > 100 µM
[11]
  TGI: > 100 µM
[12]
  TGI: > 100 µM
[13]
  TGI: > 100 µM
[14]
  TGI: > 100 µM
[15]
  TGI: > 100 µM
[16]
  TGI: > 100 µM
[17]
  TGI: > 100 µM
[18]
  TGI: > 100 µM
[19]
  TGI: > 100 µM
[20]
  TGI: > 100 µM
[21]
  TGI: > 100 µM
[22]
  TGI: > 100 µM
[23]
  TGI: > 100 µM
[24]
  TGI: > 100 µM
[25]
  TGI: > 100 µM
[26]
  TGI: > 100 µM
[27]
  TGI: > 100 µM
[28]
  TGI: > 100 µM
[29]
  TGI: > 100 µM
[30]
  TGI: > 100 µM
[31]
  TGI: > 100 µM
[32]
  TGI: > 100 µM
[33]
  TGI: > 100 µM
[34]
  TGI: > 100 µM
[35]
  TGI: > 100 µM
[36]
  TGI: > 100 µM
[37]
  TGI: > 100 µM
[38]
  TGI: > 100 µM
[39]
  TGI: > 100 µM
[40]
  TGI: > 100 µM
[41]
  TGI: > 100 µM
[42]
  TGI: > 100 µM
[43]
  TGI: > 100 µM
[44]
  TGI: > 100 µM
[45]
  TGI: > 100 µM
[46]
  TGI: > 100 µM
[47]
  TGI: > 100 µM
[48]
  TGI: > 100 µM
[49]
  TGI: > 100 µM
[50]
  TGI: > 100 µM
[51]
  TGI: > 100 µM
[52]
  TGI: > 100 µM
[53]
  TGI: > 100 µM
[54]
  TGI: > 100 µM
[55]
  TGI: > 100 µM
[56]
  TGI: > 100 µM

## COc1cccc2c1-c1c(c3ccc([N+](=O)[O-])cc3c(=O)n1CCCN)C2=O
[2]
  GI50: 1.24 µM
  TGI: 3.08 µM
[3]
  GI50: 17.9 µM
  TGI: 44.4 µM
[4]
  GI50: 1.5 µM
  TGI: 5.66 µM
[5]
  GI50: 0.884 µM
  TGI: 6.65 µM
[6]
  GI50: 3.1 µM
  TGI: 14.8 µM
[7]
  GI50: 1.62 µM
  TGI: 3.93 µM
[8]
  GI50: 2.3 µM
  TGI: 5.71 µM
[9]
  GI50: 2.02 µM
  TGI: > 24.1 µM
[10]
  GI50: 1.54 µM
  TGI: 3 µM
[11]
  GI50: 1.91 µM
  TGI: 7.38 µM
[12]
  GI50: 1.72 µM
  TGI: 3.61 µM
[13]
  GI50: 1.86 µM
  TGI: 3.81 µM
[14]
  GI50: 1.52 µM
  TGI: 3.19 µM
[15]
  GI50: 7.67 µM
  TGI: 34.3 µM
[16]
  GI50: 1.34 µM
  TGI: 3.07 µM
[17]
  GI50: 1.15 µM
  TGI: 2.94 µM
[18]
  GI50: 3.23 µM
  TGI: 9.07 µM
[19]
  GI50: 7.62 µM
  TGI: 18.7 µM
[20]
  GI50: 11 µM
  TGI: 34.4 µM
[21]
  GI50: 0.043 µM
  TGI: 1.89 µM
[22]
  GI50: 5.76 µM
  TGI: 25.1 µM
[23]
  GI50: 1.06 µM
  TGI: 6.15 µM
[24]
  GI50: 0.479 µM
  TGI: 0.987 µM
[25]
  GI50: 1.52 µM
  TGI: 3.63 µM
[26]
  GI50: 24.1 µM
  TGI: > 78.8 µM
[27]
  GI50: 1.88 µM
  TGI: 3.4 µM
[28]
  GI50: 1.89 µM
  TGI: 7.95 µM
[29]
  GI50: 0.239 µM
  TGI: 1.94 µM
[30]
  GI50: 0.289 µM
  TGI: 1.99 µM
[31]
  GI50: 2.17 µM
  TGI: 5.08 µM
[33]
  GI50: 15.1 µM
  TGI: 62.7 µM
[34]
  GI50: 0.0256 µM
  TGI: 0.379 µM
[35]
  GI50: 0.49 µM
  TGI: 2.25 µM
[36]
  GI50: 0.459 µM
  TGI: 3.2 µM
[37]
  GI50: 0.183 µM
  TGI: 4.76 µM
[38]
  GI50: 1.13 µM
  TGI: 2.5 µM
[39]
  GI50: 11.5 µM
  TGI: 29.8 µM
[40]
  GI50: 1.55 µM
  TGI: 3.94 µM
[41]
  GI50: 1.02 µM
  TGI: 2.23 µM
[42]
  GI50: 1.4 µM
  TGI: 3.37 µM
[43]
  GI50: 1.43 µM
  TGI: 4.03 µM
[44]
  GI50: 2.81 µM
  TGI: 13.2 µM
[45]
  GI50: 3.99 µM
  TGI: 19.1 µM
[46]
  GI50: 0.218 µM
  TGI: 1.12 µM
[47]
  GI50: 1.58 µM
  TGI: 3 µM
[48]
  GI50: 0.0293 µM
  TGI: 0.34 µM
[57]
  GI50: 3.02 µM
  TGI: 7 µM
[49]
  GI50: 15.7 µM
  TGI: 32.8 µM
[50]
  GI50: 5.64 µM
  TGI: 13.3 µM
[51]
  GI50: 1.39 µM
  TGI: 3.01 µM
[52]
  GI50: 0.0486 µM
  TGI: 1.59 µM
[53]
  GI50: 1.65 µM
  TGI: 5.84 µM
[54]
  GI50: 1.68 µM
  TGI: 3.41 µM
[55]
  GI50: 1.2 µM
  TGI: 2.64 µM
[56]
  GI50: 1.35 µM
  TGI: 2.93 µM
[58]
  GI50: 1.26 µM
  TGI: 2.59 µM
